Consider eleven compounds from US20250066367A1, “Pyrimidine-Annulated Triazole Derivatives and Their Use in Platelet Aggregation Inhibition” (BEIJING HONGHUI MEDITECH CO., LTD., priority 2021, published 2025).

Each structure is given as a SMILES string. Where only a bound is given, the exact number is not on record here.

The first assay deals with human P2Y12 receptor (Homo sapiens, UniProt Q9H244). Put plainly: Inhibition study in human P2Y12 receptor transfected CHO cells (cAMP, LANCE Ultra cAMP Kit). It counts as cell-based.
human P2Y12 receptor, sequence (Q9H244 whole entry): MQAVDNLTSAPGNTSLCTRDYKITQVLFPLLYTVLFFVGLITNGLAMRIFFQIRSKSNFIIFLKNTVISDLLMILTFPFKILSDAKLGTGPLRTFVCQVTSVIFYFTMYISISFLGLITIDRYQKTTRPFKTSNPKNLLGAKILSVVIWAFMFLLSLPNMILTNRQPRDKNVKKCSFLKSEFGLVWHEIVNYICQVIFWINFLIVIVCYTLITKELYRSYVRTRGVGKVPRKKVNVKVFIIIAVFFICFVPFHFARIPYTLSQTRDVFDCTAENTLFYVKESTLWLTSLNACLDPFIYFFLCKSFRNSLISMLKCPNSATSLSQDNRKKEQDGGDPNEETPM
Settings: not given
The method, then:
A CHO cell line which stably expresses human P2Y12 receptors was used in the study of the inhibitory effect of the compounds of the disclosure. (The cell line was constructed by Beijing Ion Channel Explorer Co.) The hP2Y12-CHO Cells were cultured in Ham's F-12 medium (Ham's F-12 Medium: +10% FBS +200 μg/ml Hygromycin B) and incubated at 37° C. under 5% CO2. The poor culture medium was removed, and the cells were washed with PBS. Then 1 mL trypsin solution was added to digest/detach the cells. The culture dish was incubated at 37° C. for 2 minutes. As soon as the cells were detached, 5 mL 37° C. pre-warmed complete medium was added. Cell suspension was transferred into a sterile pipet, the cells aggregates were dissociated by a gentle homogenization. The cell suspension was transferred into a sterile tube, and centrifuged at 1000 rpm for 5 minutes; In order to maintain the physiological activity of cells, the degree of cell fusion was controlled at about 80%.
After cell counting, the cells were cultured in 384-well plate. The test compounds were serially diluted 5-fold from 10000 nM for 10 concentrations and in 3 replicates. Ticagrelor was used as the reference compound and 2-MeSADP as the inducer. After the incubation for 15 min at 37° C., forskolin buffer was added to all wells to induce the production of cAMP. The plate was centrifuged at 1000 rpm for 1 minute, followed by incubation at 37° C. for 30 min. After lysis, the cAMP expression was quantified using PerkinElmer's LANCE® Ultra cAMP Kit method.
A word on the IC50: it is the point on the concentration scale where inhibition reaches its midpoint. The compound `CCCSc1nc(N[C@@H]2C[C@H]2c2ccc(F)c(F)c2)c2nnn([C@@H]3C[C@H](OCCO)[C@@H](O)[C@H]3O)c2n1` [Ticagrelor, reference compound] gave an IC50 of less than 50 nM.

Still in this assay, the particulars now being: hP2Y12-CHO cells; 2-MeSADP as inducer; forskolin-induced cAMP; read-out: Inbibition of P2Y12 IC50.
On to `CCCSc1nc(N[C@@H]2C[C@H]2c2ccc(F)c(F)c2)c2nnn([C@@H]3C[C@H](CO)O[C@H]3COC)c2n1` [Compound 49, ((2R,4R,5R)-4-(7-(((1R,2S)-2-(3,4-difluorophenyl)cyclopropyl)amino)-5-(propylthio)-3H-[1,2,3]triazolo[4,5-d]pyrimidin-3-yl)-5-(methoxymethyl)tetrahydrofuran-2-yl)methanol], for which the IC50 was 250 to 1250 nM. For the compound `CCCSc1nc(N[C@@H]2C[C@H]2c2ccc(F)c(F)c2)c2nnn([C@@H]3[C@H](F)[C@H](CO)O[C@H]3CO)c2n1` [Compound 39a, ((2R,3S,4S,5S)-3-(7-(((1R,2S)-2-(3,4-difluorophenyl)cyclopropyl)amino)-5-(propylthio)-3H-[1,2,3]triazolo[4,5-d]pyrimidin-3-yl)-4-fluorotetrahydrofuran-2,5-diyl)dimethanol], the IC50 was in the range of 50 to 250 nM. In the case of `CCCSc1nc(N[C@@H]2C[C@H]2c2ccc(F)c(F)c2)c2nnn([C@@H]3C[C@H](C(=O)O)O[C@H]3CO)c2n1` [Compound 42, (2R,4R,5R)-4-(7-(((1R,2S)-2-(3,4-difluorophenyl)cyclopropyl)amino)-5-(propylthio)-3H-[1,2,3]triazolo[4,5-d]pyrimidin-3-yl)-5-(hydroxymethyl)tetrahydrofuran-2-carboxylic acid], the IC50 is less than 50 nM. In the case of `CCC[S+]([O-])c1nc(N[C@@H]2C[C@H]2c2ccc(F)c(F)c2)c2nnn([C@@H]3C[C@H](C(=O)O)O[C@H]3CO)c2n1` (stereo partly drawn) [Compound 43, (2R,4R,5R)-4-(7-(((1R,2S)-2-(3,4-difluorophenyl)cyclopropyl)amino)-5-(propylsulfinyl)-3H-[1,2,3]triazolo[4,5-d]pyrimidin-3-yl)-5-(hydroxymethyl) tetrahydrofuran-2-carboxylic Acid], the IC50 lay in the range of 250 to 1250 nM. As to `CCCSc1nc(N[C@@H]2C[C@H]2c2ccc(F)c(F)c2)c2nnn([C@@H]3[C@@H](O)[C@H](CO)O[C@H]3CO)c2n1` [Compound 8, ((2R,3R,4R,5S)-3-(7-(((1R,2S)-2-(3,4-difluorophenyl)cyclopropyl)amino)-5-(propylthio)-3H-[1,2,3]triazolo[4,5-d]pyrimidin-3-yl)-4-hydroxytetrahydrofuran-2,5-diyl)dimethanol], the IC50 is 250 to 1250 nM. On to `CCCSc1nc(N[C@@H]2C[C@H]2c2ccc(F)c(F)c2)c2nnn([C@@H]3C[C@H](CCO)O[C@H]3CO)c2n1` [Compound 54, 2-((2R,4R,5R)-4-(7-(((1R,2S)-2-(3,4-difluorophenyl)cyclopropyl)amino)-5-(propylthio)-3H-[1,2,3]triazolo[4,5-d]pyrimidin-3-yl)-5-(hydroxymethyl)tetrahydrofuran-2-yl)ethan-1-ol], for which the IC50 was more than 1250 nM.

Turning to `CCCSc1nc(N[C@@H]2C[C@H]2c2ccc(F)c(F)c2)c2nnn([C@@H]3[C@@H](F)[C@H](CO)O[C@H]3CO)c2n1` [Compound 39b, ((2R,3S,4R,5S)-3-(7-(((1R,2S)-2-(3,4-difluorophenyl)cyclopropyl)amino)-5-(propylthio)-3H-[1,2,3]triazolo[4,5-d]pyrimidin-3-yl)-4-fluorotetrahydrofuran-2,5-diyl)dimethanol], the IC50 lay within 50 to 250 nM. The same measure, in the same setting: under `CCCSc1nc(N[C@@H]2C[C@H]2c2ccc(F)c(F)c2)c2nnn([C@H]3CO[C@@H](CO)[C@@H]3O)c2n1` [Compound 27, (2S,3R,4S)-4-(7-(((1R,2S)-2-(3,4-difluorophenyl)cyclopropyl)amino)-5-(propylthio)-3H-[1,2,3]triazolo[4,5-d]pyrimidin-3-yl)-2-(hydroxymethyl)tetrahydrofuran-3-ol] stands less than 50 nM; under `CCCSc1nc(N[C@@H]2C[C@H]2c2ccc(F)c(F)c2)c2nnn([C@@H]3C[C@H](CO)O[C@H]3CO)c2n1` [Compound 19, ((2R,3R,5R)-3-(7-(((1R,2S)-2-(3,4-difluorophenyl)cyclopropyl)amino)-5-(propylthio)-3H-[1,2,3]triazolo[4,5-d]pyrimidin-3-yl)tetrahydrofuran-2,5-diyl)dimethanol], less than 50 nM. Regarding `CCCSc1nc(N[C@@H]2C[C@H]2c2ccc(F)c(F)c2)c2nnn([C@H]3CO[C@@H](CO)C3)c2n1` [Compound 32, ((2R,4R)-4-(7-(((1R,2S)-2-(3,4-difluorophenyl)cyclopropyl)amino)-5-(propylthio)-3H-[1,2,3]triazolo[4,5-d]pyrimidin-3-yl)tetrahydrofuran-2-yl)methanol], the IC50 is less than 50 nM.
